Measurements reported in ChEMBL document CHEMBL3885861, “Open TG-GATES”.

Species on record: Rattus norvegicus
Experiment: Open TG-GATES - Regimen: Single
Type: toxicity, organism-based, Sprague-Dawley
Parameters: regimen Single, gender Male, age 6 weeks
Conditions: in vivo, po, route gavage; for APTT / Bas / Eos / Fbg / Hb / Ht / Lym / MCH / MCV / Mono / Neu / PT / Plat / RBC / Ret / WBC: tissue Blood; for KIDNEY_L / KIDNEY_R / KIDNEY_TOTAL: tissue Kidney; for LIVER: tissue Liver; for ALP / ALT / AST / BUN / CRE / Ca / Cl / DBIL / GLC / IP / K / LDH / Na / PL / RALB / TBIL / TG / TP / gamma-GTP: tissue Plasma
[1] = 0 mg/kg, 3 h, dose level Control
[2] = 0 mg/kg, 6 h, dose level Control
[3] = 0 mg/kg, 9 h, dose level Control
[4] = 0 mg/kg, 24 h, dose level Control

## NC(=O)N1c2ccccc2C=Cc2ccccc21 [CARBAMAZEPINE]
[1]
  TERMINAL_BW: 216.5 g
  APTT: 20 s
  Bas: 0%
  Eos: 1%
  Fbg: 213.8 mg/dL
  Hb: 13.4 g/dL
  Ht: 38.6%
  Lym: 80%
  MCH: 21.9 pg
  MCV: 63.2 fL
  Mono: 2%
  Neu: 16%
  PT: 12.4 s
  Plat: 131 x10_4/uL
  RBC: 611.8 x10_4/ul
  Ret: 6.3%
  WBC: 106.8 x10_2/uL
  KIDNEY_L: 1 g
  KIDNEY_R: 0.9 g
  KIDNEY_TOTAL: 1.9 g
  LIVER: 10 g
  ALP: 846.4 IU/L
  ALT: 33 IU/L
  AST: 64.6 IU/L
  BUN: 11.6 mg/dL
  CRE: 0.4 mg/dL
  Ca: 10.7 mg/dL
  Cl: 103 meq/L
  DBIL: 0.082 mg/dL
  GLC: 199.2 mg/dL
  IP: 9 mg/dL
  K: 3.6 meq/L
  LDH: 176.6 IU/L
  Na: 141.2 meq/L
  PL: 131.8 mg/dL
  RALB: 3.3 g/dL
  TBIL: 0.1 mg/dL
  TG: 66.2 mg/dL
  TP: 5.4 g/dL
  gamma-GTP: 0.8 IU/L
[2]
  TERMINAL_BW: 213.8 g
  APTT: 19.3 s
  Bas: 0%
  Eos: 1%
  Fbg: 220.2 mg/dL
  Hb: 13.7 g/dL
  Ht: 40%
  Lym: 77%
  MCH: 21.3 pg
  MCV: 62.5 fL
  Mono: 3.2%
  Neu: 17.6%
  PT: 12.5 s
  Plat: 115.6 x10_4/uL
  RBC: 640.4 x10_4/ul
  Ret: 6.6%
  WBC: 94.2 x10_2/uL
  KIDNEY_L: 1 g
  KIDNEY_R: 1 g
  KIDNEY_TOTAL: 2 g
  LIVER: 9.2 g
  ALP: 858.4 IU/L
  ALT: 37 IU/L
  AST: 65.6 IU/L
  BUN: 8.8 mg/dL
  CRE: 0.4 mg/dL
  Ca: 10.5 mg/dL
  Cl: 103 meq/L
  DBIL: 0.08 mg/dL
  GLC: 196.8 mg/dL
  IP: 9.4 mg/dL
  K: 3.9 meq/L
  LDH: 175.2 IU/L
  Na: 140.2 meq/L
  PL: 133.4 mg/dL
  RALB: 3.3 g/dL
  TBIL: 0.1 mg/dL
  TG: 60.4 mg/dL
  TP: 5.5 g/dL
  gamma-GTP: 1.4 IU/L
[3]
  TERMINAL_BW: 211.7 g
  APTT: 22.5 s
  Bas: 0%
  Eos: 1%
  Fbg: 220 mg/dL
  Hb: 13 g/dL
  Ht: 38.2%
  Lym: 78.8%
  MCH: 20.9 pg
  MCV: 61.5 fL
  Mono: 2.2%
  Neu: 17.5%
  PT: 13.2 s
  Plat: 119.7 x10_4/uL
  RBC: 621.8 x10_4/ul
  Ret: 6.6%
  WBC: 89.4 x10_2/uL
  KIDNEY_L: 1 g
  KIDNEY_R: 1 g
  KIDNEY_TOTAL: 2 g
  LIVER: 9.3 g
  ALP: 824.8 IU/L
  ALT: 32 IU/L
  AST: 63.8 IU/L
  BUN: 9.8 mg/dL
  CRE: 0.4 mg/dL
  Ca: 10.3 mg/dL
  Cl: 102 meq/L
  DBIL: 0.07 mg/dL
  GLC: 202.8 mg/dL
  IP: 9.3 mg/dL
  K: 3.9 meq/L
  LDH: 170.4 IU/L
  Na: 140.2 meq/L
  PL: 127 mg/dL
  RALB: 3.3 g/dL
  TBIL: 0.1 mg/dL
  TG: 47 mg/dL
  TP: 5.3 g/dL
  gamma-GTP: 1 IU/L
[4]
  TERMINAL_BW: 225.7 g
  APTT: 21.9 s
  Bas: 0%
  Eos: 0.8%
  Fbg: 215.6 mg/dL
  Hb: 13.7 g/dL
  Ht: 40.7%
  Lym: 79.8%
  MCH: 21.5 pg
  MCV: 63.9 fL
  Mono: 2.4%
  Neu: 15.8%
  PT: 12.1 s
  Plat: 117.9 x10_4/uL
  RBC: 637.2 x10_4/ul
  Ret: 6%
  WBC: 90.1 x10_2/uL
  KIDNEY_L: 1 g
  KIDNEY_R: 1 g
  KIDNEY_TOTAL: 2 g
  LIVER: 10.4 g
  ALP: 990.6 IU/L
  ALT: 39.2 IU/L
  AST: 70.4 IU/L
  BUN: 15.6 mg/dL
  CRE: 0.4 mg/dL
  Ca: 10.6 mg/dL
  Cl: 102.4 meq/L
  DBIL: 0.088 mg/dL
  GLC: 207 mg/dL
  IP: 7.9 mg/dL
  K: 4 meq/L
  LDH: 199 IU/L
  Na: 140.4 meq/L
  PL: 146.2 mg/dL
  RALB: 3.4 g/dL
  TBIL: 0.1 mg/dL
  TG: 93.6 mg/dL
  TP: 5.6 g/dL
  gamma-GTP: 0.8 IU/L
30 mg/kg, 3 h, dose level Low
  TERMINAL_BW: 214.2 g
  APTT: 19.1 s
  Bas: 0%
  Eos: 1%
  Fbg: 212.2 mg/dL
  Hb: 13.3 g/dL
  Ht: 39.3%
  Lym: 78.2%
  MCH: 21.1 pg
  MCV: 62.4 fL
  Mono: 2.4%
  Neu: 17.8%
  PT: 12.2 s
  Plat: 121.8 x10_4/uL
  RBC: 631.2 x10_4/ul
  Ret: 6.3%
  WBC: 97.3 x10_2/uL
  KIDNEY_L: 0.9 g
  KIDNEY_R: 0.9 g
  KIDNEY_TOTAL: 1.9 g
  LIVER: 9.8 g
  ALP: 896 IU/L
  ALT: 34.8 IU/L
  AST: 66.6 IU/L
  BUN: 12.6 mg/dL
  CRE: 0.4 mg/dL
  Ca: 10.6 mg/dL
  Cl: 103.6 meq/L
  DBIL: 0.072 mg/dL
  GLC: 187.8 mg/dL
  IP: 10.1 mg/dL
  K: 3.9 meq/L
  LDH: 177 IU/L
  Na: 142.4 meq/L
  PL: 143.8 mg/dL
  RALB: 3.3 g/dL
  TBIL: 0.1 mg/dL
  TG: 51.8 mg/dL
  TP: 5.5 g/dL
  gamma-GTP: 0.6 IU/L
30 mg/kg, 6 h, dose level Low
  TERMINAL_BW: 211.1 g
  APTT: 21.9 s
  Bas: 0%
  Eos: 1%
  Fbg: 203.8 mg/dL
  Hb: 13.3 g/dL
  Ht: 38.6%
  Lym: 80.6%
  MCH: 20.9 pg
  MCV: 60.9 fL
  Mono: 2.6%
  Neu: 14.8%
  PT: 12.9 s
  Plat: 126.6 x10_4/uL
  RBC: 634.2 x10_4/ul
  Ret: 6.1%
  WBC: 83.2 x10_2/uL
  KIDNEY_L: 1 g
  KIDNEY_R: 1 g
  KIDNEY_TOTAL: 1.9 g
  LIVER: 9.2 g
  ALP: 896 IU/L
  ALT: 34.4 IU/L
  AST: 66 IU/L
  BUN: 9.6 mg/dL
  CRE: 0.4 mg/dL
  Ca: 10.4 mg/dL
  Cl: 103.2 meq/L
  DBIL: 0.078 mg/dL
  GLC: 197.6 mg/dL
  IP: 9.6 mg/dL
  K: 4 meq/L
  LDH: 194 IU/L
  Na: 140.6 meq/L
  PL: 130.6 mg/dL
  RALB: 3.3 g/dL
  TBIL: 0.1 mg/dL
  TG: 61.6 mg/dL
  TP: 5.5 g/dL
  gamma-GTP: 0.8 IU/L
30 mg/kg, 9 h, dose level Low
  TERMINAL_BW: 210.1 g
  APTT: 18.7 s
  Bas: 0%
  Eos: 0.8%
  Fbg: 216.4 mg/dL
  Hb: 13.1 g/dL
  Ht: 38.3%
  Lym: 75.2%
  MCH: 21.3 pg
  MCV: 62.2 fL
  Mono: 1.6%
  Neu: 21.4%
  PT: 13 s
  Plat: 113.3 x10_4/uL
  RBC: 616.2 x10_4/ul
  Ret: 6.8%
  WBC: 83.2 x10_2/uL
  KIDNEY_L: 1 g
  KIDNEY_R: 1 g
  KIDNEY_TOTAL: 2 g
  LIVER: 8.6 g
  ALP: 814.2 IU/L
  ALT: 31.4 IU/L
  AST: 62.6 IU/L
  BUN: 11.8 mg/dL
  CRE: 0.4 mg/dL
  Ca: 10.3 mg/dL
  Cl: 102 meq/L
  DBIL: 0.076 mg/dL
  GLC: 190.4 mg/dL
  IP: 9.4 mg/dL
  K: 4.1 meq/L
  LDH: 175 IU/L
  Na: 140.4 meq/L
  PL: 137.2 mg/dL
  RALB: 3.3 g/dL
  TBIL: 0.1 mg/dL
  TG: 59.6 mg/dL
  TP: 5.6 g/dL
  gamma-GTP: 0.8 IU/L
30 mg/kg, 24 h, dose level Low
  TERMINAL_BW: 228 g
  APTT: 19.6 s
  Bas: 0%
  Eos: 1%
  Fbg: 205.8 mg/dL
  Hb: 13.4 g/dL
  Ht: 39.6%
  Lym: 78.2%
  MCH: 21.4 pg
  MCV: 63.3 fL
  Mono: 2.4%
  Neu: 18%
  PT: 12.1 s
  Plat: 118 x10_4/uL
  RBC: 626.4 x10_4/ul
  Ret: 5.8%
  WBC: 103.7 x10_2/uL
  KIDNEY_L: 1.1 g
  KIDNEY_R: 1.1 g
  KIDNEY_TOTAL: 2.1 g
  LIVER: 11.2 g
  ALP: 892.6 IU/L
  ALT: 34 IU/L
  AST: 64.6 IU/L
  BUN: 16.2 mg/dL
  CRE: 0.4 mg/dL
  Ca: 10.6 mg/dL
  Cl: 102.4 meq/L
  DBIL: 0.1 mg/dL
  GLC: 214 mg/dL
  IP: 7.7 mg/dL
  K: 4.2 meq/L
  LDH: 198.8 IU/L
  Na: 140.2 meq/L
  PL: 151.2 mg/dL
  RALB: 3.3 g/dL
  TBIL: 0.1 mg/dL
  TG: 99.8 mg/dL
  TP: 5.5 g/dL
